Experimental findings from publication PMC11891828, “Olfactory Receptor Responses to Pure Odorants in Drosophila melanogaster” (The European Journal of Neuroscience, 2025) are described below.

Each structure is given as a SMILES string. Some results are limits rather than exact numbers.

Assay in all cases: in vivo GCaMP6m calcium imaging of antennal neurons, GC-purified odorant
Test [1] concerns the target T1, Or56a (Drosophila melanogaster, UniProt Q9V8Y7).
T1 construct: native receptor in situ in antennal olfactory sensory neurons of living flies; Or56a-Gal4 drives UAS-GCaMP6m reporter; with Odorant receptor coreceptor
T1 sequence (Q9V8Y7 1-419): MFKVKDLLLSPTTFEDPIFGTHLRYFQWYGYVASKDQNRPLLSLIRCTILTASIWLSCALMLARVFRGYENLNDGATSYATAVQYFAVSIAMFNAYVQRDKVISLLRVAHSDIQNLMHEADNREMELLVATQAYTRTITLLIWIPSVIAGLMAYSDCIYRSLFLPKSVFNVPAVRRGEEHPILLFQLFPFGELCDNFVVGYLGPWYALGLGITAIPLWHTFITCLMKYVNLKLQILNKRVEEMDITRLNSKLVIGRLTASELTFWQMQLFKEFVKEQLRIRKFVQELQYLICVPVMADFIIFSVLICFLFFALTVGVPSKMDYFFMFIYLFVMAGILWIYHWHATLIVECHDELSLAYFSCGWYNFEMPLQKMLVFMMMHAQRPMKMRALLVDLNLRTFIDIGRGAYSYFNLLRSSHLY
T1 sequence (Q9VNB5 1-486 partner): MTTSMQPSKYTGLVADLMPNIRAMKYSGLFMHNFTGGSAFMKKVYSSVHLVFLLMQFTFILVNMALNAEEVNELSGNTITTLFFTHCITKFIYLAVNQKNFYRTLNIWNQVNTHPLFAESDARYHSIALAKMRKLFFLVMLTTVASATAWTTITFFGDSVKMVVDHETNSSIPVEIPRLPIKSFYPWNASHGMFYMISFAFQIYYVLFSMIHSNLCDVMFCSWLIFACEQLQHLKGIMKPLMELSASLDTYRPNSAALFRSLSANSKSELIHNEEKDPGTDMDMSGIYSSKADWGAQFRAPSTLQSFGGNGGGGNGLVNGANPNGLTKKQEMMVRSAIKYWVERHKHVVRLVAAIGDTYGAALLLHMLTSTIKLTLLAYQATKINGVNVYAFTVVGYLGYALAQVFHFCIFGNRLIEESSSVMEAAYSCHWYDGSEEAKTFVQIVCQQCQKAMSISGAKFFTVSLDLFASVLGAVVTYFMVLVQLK
The conditions noted are these: activation; dose series extended to 10^-12 dilution.

The target in test [2] is T2, Or10a (Drosophila melanogaster, UniProt Q9VYZ1).
T2 construct: native receptor in situ in antennal olfactory sensory neurons of living flies; Or10a-Gal4 drives UAS-GCaMP6m reporter; with Odorant receptor coreceptor
T2 sequence (Q9VYZ1 1-406): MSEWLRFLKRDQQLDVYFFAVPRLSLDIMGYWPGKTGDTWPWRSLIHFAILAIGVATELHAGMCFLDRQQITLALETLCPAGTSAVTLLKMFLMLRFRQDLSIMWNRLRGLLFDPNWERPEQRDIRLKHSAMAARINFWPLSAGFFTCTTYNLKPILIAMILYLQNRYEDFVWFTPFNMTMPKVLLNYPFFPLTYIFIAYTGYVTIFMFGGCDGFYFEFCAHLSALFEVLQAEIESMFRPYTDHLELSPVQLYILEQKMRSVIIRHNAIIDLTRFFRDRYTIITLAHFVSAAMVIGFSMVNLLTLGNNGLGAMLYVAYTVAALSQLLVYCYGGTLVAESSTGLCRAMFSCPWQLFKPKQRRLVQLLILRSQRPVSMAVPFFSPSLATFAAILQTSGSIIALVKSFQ
T2 sequence (Q9VNB5 1-486 partner): T1 sequence (Q9VNB5 1-486 partner)
The conditions noted are these: activation; headspace of mineral-oil dilutions 10^-6, 10^-4, 10^-2.

For test [3], the target named is T3, Or92a (Drosophila melanogaster, UniProt Q9VDM1).
T3 construct: native receptor in situ in antennal olfactory sensory neurons of living flies; Or92a-Gal4 drives UAS-GCaMP6m reporter; with Odorant receptor coreceptor
T3 sequence (Q9VDM1 1-408): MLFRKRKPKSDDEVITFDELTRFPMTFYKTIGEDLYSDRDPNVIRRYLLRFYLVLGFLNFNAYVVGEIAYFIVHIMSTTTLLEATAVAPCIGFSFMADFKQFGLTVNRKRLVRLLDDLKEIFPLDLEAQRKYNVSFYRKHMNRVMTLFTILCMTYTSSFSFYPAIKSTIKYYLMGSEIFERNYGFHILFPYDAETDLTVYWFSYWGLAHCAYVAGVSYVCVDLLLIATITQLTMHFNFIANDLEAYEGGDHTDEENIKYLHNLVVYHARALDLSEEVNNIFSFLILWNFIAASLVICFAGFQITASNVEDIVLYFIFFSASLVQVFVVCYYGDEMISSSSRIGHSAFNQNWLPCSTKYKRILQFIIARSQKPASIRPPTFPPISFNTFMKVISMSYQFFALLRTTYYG
T3 sequence (Q9VNB5 1-486 partner): T1 sequence (Q9VNB5 1-486 partner)
The conditions noted are these: activation, biphasic; polar GC column; n = 4.

Test [4] concerns the target T4, Or47a (Drosophila melanogaster, UniProt P81921).
T4 construct: native receptor in situ in antennal olfactory sensory neurons of living flies; Or47a-Gal4 drives UAS-GCaMP6m reporter; with Odorant receptor coreceptor
T4 sequence (P81921 1-385): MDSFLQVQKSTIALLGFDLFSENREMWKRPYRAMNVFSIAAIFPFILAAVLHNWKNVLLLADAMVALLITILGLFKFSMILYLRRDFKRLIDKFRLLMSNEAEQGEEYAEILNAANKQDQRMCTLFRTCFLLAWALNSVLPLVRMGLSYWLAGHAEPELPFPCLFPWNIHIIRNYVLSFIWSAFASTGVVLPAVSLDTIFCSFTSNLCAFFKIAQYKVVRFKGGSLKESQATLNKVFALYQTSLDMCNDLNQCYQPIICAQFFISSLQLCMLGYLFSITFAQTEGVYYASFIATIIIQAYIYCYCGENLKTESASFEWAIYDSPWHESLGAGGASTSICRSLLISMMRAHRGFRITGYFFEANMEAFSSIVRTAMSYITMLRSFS
T4 sequence (Q9VNB5 1-486 partner): T1 sequence (Q9VNB5 1-486 partner)
The conditions noted are these: activation; headspace of mineral-oil dilutions.

Test [5] has as its target T3, Or92a. The conditions noted are these: activation, biphasic; polar GC column; n = 4. This is another data set of the same source.

On to `CC1CCCC2(C)CCCCC12O` (racemic) [2MNL, (±)-geosmin], for which, in test [1], the “in vivo GCaMP6m calcium imaging of antennal neurons, GC-purified odorant” value (from here on “in vivo GCaMP6m calcium imaging”) is “We found strong responses to geosmin and none to any of the other substances”.

Take `CCOC(=O)c1ccccc1` [2EBM, ethyl benzoate]: in test [2], the “in vivo GCaMP6m calcium imaging” value was “good ligands were methyl benzoate and ethyl benzoate”.

Take `C[C@H](O)[C@@H](C)O` [MBDL, meso-2,3-Butanediol]: the “in vivo GCaMP6m calcium imaging” value in test [3] is “the meso isomer, identical to 2R,3S) gave a weak response only”.

For the compound `COC(=O)c1ccccc1` [MBZM, methyl benzoate], the “in vivo GCaMP6m calcium imaging” value in test [2] was “good ligands were methyl benzoate and ethyl benzoate”.

For `COC(=O)c1ccccc1O` [MSAM, methyl salicylate], in test [2], the “in vivo GCaMP6m calcium imaging” value is “The best ligand was methyl salicylate”.

As to `CCCCCOC(C)=O` [PACE, pentyl acetate], the “in vivo GCaMP6m calcium imaging” value in test [4] is on record as “We found strong responses to pentyl acetate (significant to very low concentrations”.

For the compound `C[C@@H](O)[C@@H](C)O` [RBDL, (2R,3R)-(−)-2,3-Butanediol], the calcium response in test [5] is on record as ~ 15%.

Consider `C[C@H](O)[C@H](C)O` [SBDL, (2S,3S)-(+)-2,3-Butanediol], for which the calcium response in test [5] is over 40%.
